Several values for one entry are separate records, joined by “and”; a condition that tells them apart may be missing. Equal values may be shown once. Read-outs that look alike come from different tables or passages of the source.
Legend:
IRAK4 = IRAK4 (Homo sapiens (Human), UniProt Q9NWZ3); assay: IRAK4 Inhibition Assay; format: biochemical; settings: ATP 500 μM; IRAK4 0.6 nM; 60 min at room temperature
Experimental: The assays were performed in U-bottom 384-well plates. […] The reaction was initiated by the combination of IRAK4 with substrates and test compounds. The reaction was incubated at room temperature for 60 min. and terminated by adding 45 μL of 35 mM EDTA to each sample. The reaction mixture was analyzed on the Caliper LABCHIP® 3000 (Caliper, Hopkinton, Mass.) by electrophoretic separation of the fluorescent substrate and phosphorylated product.

[1] = test system: TLR2 induced IL-6 in peripheral blood mononuclear cells (PBMCs); assay: PBMC TLR2 Induced IL-6 Assay; format: cell-based, human; settings: human PBMCs, 10 μg/ml lipoteichoic acid for 5 hours, IL-6 by ELISA; for IC50: value without asterisk, read-out: Cell IC50
Experimental: Peripheral blood mononuclear cells (PBMCs) were isolated from human blood containing the anti-coagulant EDTA (2.5 mM) by centrifugation over a FICOLL® gradient. PBMCs (250000 cells/well) were cultured in assay media (RPMI with 10% heat inactivated FCS) with compounds for 30 minutes at 37° C. in a 5% CO2 incubator. Following pretreatment with compounds, cells were stimulated for 5 hours with 10 μg/ml lipoteichoic acid (Invivogen, San Diego, Calif.), a TLR2 agonist. At the end of the culture, plates were centrifuged at 1800 rpm for 10 minutes to pellet the cells. Supernatants were harvested and analyzed for IL-6 levels by ELISA (BD Biosciences, San Jose, Calif.). Inhibition was calculated as either an IC50 or EC50. EC50 determinations are indicated with an asterisk.

IRAK4, sequence (Q9NWZ3 whole entry, species assumed): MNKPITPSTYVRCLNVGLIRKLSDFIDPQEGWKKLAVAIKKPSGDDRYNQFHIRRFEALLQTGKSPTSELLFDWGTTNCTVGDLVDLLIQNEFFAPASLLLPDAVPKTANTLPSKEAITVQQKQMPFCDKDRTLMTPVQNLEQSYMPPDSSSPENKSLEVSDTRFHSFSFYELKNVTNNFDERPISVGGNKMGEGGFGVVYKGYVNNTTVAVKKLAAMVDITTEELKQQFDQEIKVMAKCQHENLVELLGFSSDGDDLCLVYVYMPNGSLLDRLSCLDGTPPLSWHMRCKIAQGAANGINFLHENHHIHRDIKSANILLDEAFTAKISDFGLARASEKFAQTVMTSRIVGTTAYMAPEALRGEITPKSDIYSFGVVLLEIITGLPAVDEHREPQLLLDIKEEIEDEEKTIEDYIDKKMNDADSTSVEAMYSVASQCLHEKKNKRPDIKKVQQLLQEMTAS

| SMILES | IC50 (IRAK4) | IC50 ([1]; Homo sapiens, PBMC, 5 h) [nM] | IC50 [1] [nM] | EC50 ([1]; Homo sapiens, PBMC, 5 h, EC50 determinations are indicated with an asterisk, read-out: Cell EC50 (asterisk)) [nM] |
| --- | --- | --- | --- | --- |
| CNC(=O)c1cnc(Nc2ccc3ncsc3c2)cc1NC1C2CC3CC1CC(O)(C3)C2 (single isomer, unassigned) [Example 146] | 53.9 nM | 550 | – | – |
| CNC(=O)c1cnc(Nc2ccc3ncsc3c2)cc1NC1C2CC3CC1CC(O)(C3)C2 (single isomer, unassigned) [Example 147] | 17.4 nM | – | 507 | – |
| CNC(=O)c1cnc(Nc2ccc3ncsc3c2)cc1NC1C2CC3CC1CC(O)(C3)C2 (single isomer, unassigned) [Example 148] | 24.5 nM | – | 456 | – |
| CC(C)(O)[C@H](F)CNC(=O)c1cnc(Nc2ccc3ncsc3c2)cc1NC1CCC(F)C1 (single isomer, unassigned) [Example 362, 6-(benzo[d]thiazol-6-ylamino)-N-(2-fluoro-3-hydroxy-3-methylbutyl)-4-(3-fluorocyclopentylamino)nicotinamide] | 2.9 nM | – | 44 | – |
| CC(C)(O)[C@H](F)CNC(=O)c1cnc(Nc2ccc3ncsc3c2)cc1NC1CCC(F)C1 (single isomer, unassigned) [Example 363, 6-(benzo[d]thiazol-6-ylamino)-N-(2-fluoro-3-hydroxy-3-methylbutyl)-4-(3-fluorocyclopentylamino)nicotinamide] | 2.5 nM | – | 87 | – |
| CC(C)(O)[C@H](F)CNC(=O)c1cnc(Nc2ccc3ncsc3c2)cc1NC1CCC(F)C1 (single isomer, unassigned) [Example 364, 6-(benzo[d]thiazol-6-ylamino)-N-(2-fluoro-3-hydroxy-3-methylbutyl)-4-(3-fluorocyclopentylamino)nicotinamide] | 3.6 nM | – | 92 | – |
| CC(C)(O)[C@H](F)CNC(=O)c1cnc(Nc2ccc3ncsc3c2)cc1NC1CCC(F)C1 (single isomer, unassigned) [Example 365, 6-(benzo[d]thiazol-6-ylamino)-N-(2-fluoro-3-hydroxy-3-methylbutyl)-4-(3-fluorocyclopentylamino)nicotinamide] | 5.8 nM | – | 97 | – |
| Cc1cc2nc(Nc3cc(NC4CCC(F)C4)c(C(=O)NC[C@@H](F)C(C)(C)O)cn3)ccn2n1 (single isomer, unassigned) [Example 381] | 6.1 nM | 376 | – | – |
| CNC(=O)c1cnc(Nc2ccc3c(c2)C(F)(F)C(=O)N3)cc1NC1CCCC1 [Example 1, 4-(cyclopentylamino)-6-(3,3-difluoro-2-oxoindolin-5-ylamino)-N-methylnicotinamide] | 4.4 nM | 612 | – | – |
| CCOC(=O)c1cn2c(n1)sc1cc(Nc3cc(NC4CCCC4)c(C(=O)NC)cn3)ccc12 [Example 3] | 17.1 nM | 180 | – | – |
| CNC(=O)c1cnc(Nc2nc3ccc(Cl)nc3s2)cc1NC(C)C [Example 4, 6-(5-chlorothiazolo[5,4-b]pyridin-2-ylamino)-4-(isopropylamino)-N-methylnicotinamide] | 18.2 nM | 639 | – | – |
| CC(C)Nc1cc(Nc2ccc3ncsc3c2)ncc1C(=O)NC[C@@H](F)CO [Example 5, (R)-6-(benzo[d]thiazol-6-ylamino)-N-(2-fluoro-3-hydroxypropyl)-4-(isopropylamino)nicotinamide] | 9.6 nM | 484 | – | – |
| CC(C)Nc1cc(Nc2ccc3ncsc3c2)ncc1C(=O)NCCC(C)(C)O [Example 8] | 4.1 nM | 290 | – | – |
| CC(C)(O)CCNC(=O)c1cnc(Nc2ccc3ncsc3c2)cc1NC1CC1 [Example 9] | 10 nM | 289 | – | – |
| O=C(NCCC1(O)CCC1)c1cnc(Nc2ccc3ncsc3c2)cc1NC1CC1 [Example 10] | 5.1 nM | 115 | – | – |
| CC(C)Nc1cc(Nc2ccc3ncsc3c2)ncc1C(=O)NCCc1ccc(C(N)=O)cc1 [Example 11] | 7.8 nM | 726 | – | – |
| CNC(=O)c1ccc(CCNC(=O)c2cnc(Nc3ccc4ncsc4c3)cc2NC(C)C)cc1 [Example 12] | 5.6 nM | 311 | – | – |
| CC(C)Nc1cc(Nc2ccc3ncsc3c2)ncc1C(=O)NC[C@@H](F)C(O)C(C)C (some centres unmarked) [Example 13] | 3 nM | – | 107 | – |
| CC(C)Nc1cc(Nc2ccc3ncsc3c2)ncc1C(=O)NC[C@@H](F)C(O)C(C)C (some centres unmarked) [Example 14] | 4.3 nM | – | 461 | – |
| CC(C)Nc1cc(Nc2ccc3ncsc3c2)ncc1C(=O)NC[C@@H](F)C(O)C1CC1 (some centres unmarked) [Example 15] | 5.2 nM | 541 | – | – |

| SMILES | IC50 (IRAK4) | IC50 ([1]; Homo sapiens, PBMC, 5 h) [nM] | IC50 [1] [nM] | EC50 ([1]; Homo sapiens, PBMC, 5 h, EC50 determinations are indicated with an asterisk, read-out: Cell EC50 (asterisk)) [nM] |
| --- | --- | --- | --- | --- |
| CC(C)Nc1cc(Nc2ccc3ncsc3c2)ncc1C(=O)NC[C@@H](F)C(O)C1CC1 (some centres unmarked) [Example 16] | 5.2 nM | – | 595 | – |
| CC(C)Nc1cc(Nc2ccc3ncsc3c2)ncc1C(=O)NC[C@@H](F)C(C)(O)C(F)(F)F (some centres unmarked) [Example 17] | 4.7 nM | 221 | – | – |
| CC(C)Nc1cc(Nc2ccc3ncsc3c2)ncc1C(=O)NC[C@@H](F)C(C)(O)C(F)(F)F (some centres unmarked) [Example 18] | 6.9 nM | – | 269 | – |
| CC(O)([C@H](F)CNC(=O)c1cnc(Nc2ccc3ncsc3c2)cc1NC1CC1)C(F)(F)F (some centres unmarked) [Example 19] | 4.3 nM | – | 177 | – |
| CC(O)([C@H](F)CNC(=O)c1cnc(Nc2ccc3ncsc3c2)cc1NC1CC1)C(F)(F)F (some centres unmarked) [Example 20] | 4.9 nM | – | 562 | – |
| CC(C)Nc1cc(Nc2ccc3ncoc3c2)ncc1C(=O)NC[C@@H](F)C(O)C(C)C (some centres unmarked) [Example 24] | 4 nM | 468 | – | – |
| CC(C)C(O)[C@H](F)CNC(=O)c1cnc(Nc2ccc3ncsc3c2)cc1NC1CC1 (some centres unmarked) [Example 25] | 3.5 nM | – | 60 | – |
| CC(C)C(O)[C@H](F)CNC(=O)c1cnc(Nc2ccc3ncsc3c2)cc1NC1CC1 (some centres unmarked) [Example 26] | 7.3 nM | – | 121 | – |
| CC(C)C(O)C(F)CNC(=O)c1cnc(Nc2ccc3ncsc3c2)cc1NC(c1ccccc1)C(O)CO (centres unmarked) [Example 27] | 3 nM | 86 | – | – |
| CC(O)[C@H](F)CNC(=O)c1cnc(Nc2ccc3ncsc3c2)cc1NC1CCCC1 (some centres unmarked) [Example 28] | 7.8 nM | 195 | – | – |
| CC(O)[C@H](F)CNC(=O)c1cnc(Nc2ccc3ncsc3c2)cc1NC1CCCC1 (some centres unmarked) [Example 29] | 9.2 nM | – | 128 | – |
| CC(C)(O)C1CC(Nc2cc(Nc3ccc4ncsc4c3)ncc2C(=O)NC[C@@H](F)C(O)(C2CC2)C(F)(F)F)C1 (some centres unmarked) [Example 32] | 15 nM | 511 | – | – |
| CC(C)(O)[C@H](F)CNC(=O)c1cnc(Nc2ccc3ncsc3c2)cc1NC1CCCC1 [Example 33, (R)-6-(benzo[d]thiazol-6-ylamino)-4-(cyclopentylamino)-N-(2-fluoro-3-hydroxy-3-methylbutyl)nicotinamide] | 3.7 nM | 64 | – | – |
| CC(C)Nc1cc(Nc2ccc3ncsc3c2)ncc1C(=O)NC[C@@H](F)C(C)(C)O [Example 35] | 2.6 nM | 482 | – | – |
| CC(C)(O)[C@H](F)CNC(=O)c1cnc(Nc2ccc3nsnc3c2)cc1NC1CCCC1 [Example 36] | 8.2 nM | 893 | – | – |
| CC1COCCC1Nc1cc(Nc2ccc3ncsc3c2)ncc1C(=O)NC[C@@H](F)C(C)(C)O (some centres unmarked) [Example 234] | 4.4 nM and 3.2 nM | – | – | – |
| Cc1cc2nc(Nc3cc(NC(C)C)c(C(=O)NC[C@@H](F)C(C)(C)O)cn3)ccn2n1 [Example 379] | 6.3 nM | – | – | – |
| CC(C)Nc1cc(Nc2nc3cccnc3cc2F)ncc1C(=O)NC[C@@H](F)C(C)(C)O [Example 499] | – | – | – | 72 |
| CC(C)Nc1cc(Nc2nc3ccnn3cc2F)ncc1C(=O)NCC(F)(F)C(C)(C)O [Example 522] | – | 795 | – | – |

From US9546153B2, “Bicyclic heterocycle substituted pyridyl compounds useful as kinase modulators” (BRISTOL-MYERS SQUIBB COMPANY, priority 2012, dated 2017)
